Experimental findings from patent US10076533B2, “Acyclic nucleoside phosphonate diesters” (The Regents of the University of California, priority 2013, dated 2018) are described below.

Like-named read-outs stand apart in the source and are kept apart here. Bounds are passed on as bounds.

The conditions of data set [1]: African green monkey.
Another data set deals with Caski (HPV-16). Nature of the data set: Antiproliferative activity, neutral red, Caski cervical cancer cells.
For data set [2] the following is noted: human.
Another data set deals with Hepatitis B virus. Nature of the data set: HBV replication in 2.2.15 cells, HBV DNA blot hybridization.
The test system of another data set is HIV-1LAI. In words: HIV antiviral assay in MT-2 cells, p24 reduction. The settings on record: for Selectivity Index: CC50/EC50, MT-2 cells.
The nature of data set [3]: Toxicity in HEK 293 cells by trypan blue exclusion (HPV-11 example). The data set is classed as cell-based. The conditions noted are these: human. As for the experimental part: (§1) An origin-containing plasmid was co-transfected with HPV-11 E1 and E2 protein expression vectors into HEK 293 cells. At 4 hr post-transfection, cells were treated with compound dilutions and the cells were incubated for 48 hr. Replication of the virus origin was detected with DpnI and exonuclease III to remove unreplicated input bacterial plasmid DNA. Remaining replicated DNA was quantified by qPCR. Toxicity was determined by trypan blue exclusion.

The subject of the next data set is MT-2 cells. Nature of the data set: Cytotoxicity in MT-2 cells, flow cytometry cell counts and viability. It counts as cell-based, human. As for the experimental part:
(§2) MT-2 cells were incubated with drug for 72 hrs and harvested. Flow count beads (Beckman Coulter, Miami, Fla.) were added to the cell suspension followed by propidium iodide staining and analysis using flow cytometer and the 50% cytotoxic concentration (CC50) was calculated from the cell counts and viability.
On the technique in general: Flow cytometry measures light scatter and fluorescence of single cells or particles in a stream.

Assay in data set [4]: as above
The data set is classed as cell-based, human. The conditions noted are these: human; MT-2 cells, 72 hrs. As for the experimental part:
as §2

Another data set relates to HPV-16. In words: HPV-16 origin replication in HEK 293 cells, qPCR. The data set is classed as cell-based. The method, then:
(§3) An origin-containing plasmid was co-transfected with HPV-16 E1 and E2 protein expression vectors into HEK 293 cells. At 4 hr post-transfection, cells were treated with compound dilutions and the cells were incubated for 48 hr. Replication of the virus origin was detected with DpnI and exonuclease III to remove unreplicated input bacterial plasmid DNA. Remaining replicated DNA was quantified by qPCR. Toxicity was determined by trypan blue exclusion.
For orientation: Quantitative PCR measures a nucleic acid by following its amplification.

In another data set the test system is HPV-11. In words: HPV-11 origin replication in HEK 293 cells, qPCR. The conditions noted are these: for EC50: HPV-11 origin replication in HEK 293 cells, 48 hr, qPCR. The data set is classed as cell-based. As for the experimental part:
as §1

The subject of a further data set is HIV-192US727. In words: Anti-HIV assay in human PBMC, supernatant reverse transcriptase activity.
In the next data set the test system is HPV-18. Nature of the data set: Antiviral effect in HPV-18 infected primary human keratinocyte rafts, qPCR.
In another data set the test system is Hela (HPV-18). Nature of the data set: Antiproliferative activity, neutral red, Hela cervical cancer cells. The settings on record: Homo sapiens, 96 h, read-out: Cytotoxic concentration 50% (CC50) Hela (HPV-18).
A further data set has as its system MAD-1 strain of JC virus. In words: Antiviral effect in JC virus (MAD-1) infected COS7 cells, qPCR.
Data set [5] is described as follows: Antiproliferative activity, neutral red, normal human fibroblasts.
A short description of data set [6]: Toxicity in primary human keratinocyte raft cultures by histology.
Data set [7] is described as follows: Cytotoxicity in HFF cells in parallel to cytomegalovirus assay. The settings on record: human.
Data set [8] can be described thus: Effect of oral compounds on body weight in Balb-c mice. It counts as in vivo. As for the experimental part: Compounds were administered at the indicated doses by oral gavage daily for 5 days. Weights measured before and on day 6 after 5 doses.
For data set [9], the system named is AD169 strain of human cytomegalovirus. In words: Antiviral effect in HFF cells infected with human cytomegalovirus (AD169).
The nature of data set [10]: Cytotoxicity in 2.2.15 cells by neutral red uptake. The settings on record: human.
Data set [11] in a line: Cytotoxicity in HFF cells in parallel to HSV-1 assay. The conditions noted are these: human.
Another data set in a line: in vitro. The conditions noted are these: human.
Data set [12] in a line: Toxicity in HEK 293 cells by trypan blue exclusion (HPV-16 example). It counts as cell-based. The conditions noted are these: human. As for the experimental part: as §3
The test system of data set [13] is BK virus (Gardner strain). In words: Antiviral effect in HFF cells infected with BK virus (Gardner strain), qPCR.
A further data set deals with 2.2.15 cells. In words: Cytotoxicity in 2.2.15 cells by neutral red uptake. The settings on record: 2.2.15 cells, neutral red uptake.
In data set [14] the test system is Human peripheral blood monocyte (PBMC). Nature of the data set: Viability of PBMC by XTT reduction. The conditions noted are these: human PBMC, XTT reduction. A general note: Formazan colour is commonly taken as a measure of viable cells.
The subject of another data set is COS7 cells. The conditions noted are these: uninfected COS7 cells, […].
Data set [15] has as its system human foreskin fibroblast (HFF) cells. The conditions noted are these: uninfected HFF cells, […].
Data set [16] has the same test system.
In the next data set the test system is HEK 293 cells. Nature of the data set: Toxicity in HEK 293 cells by trypan blue exclusion (HPV-11 example). The data set is classed as cell-based. The method, then:
as §1

Data set [17] concerns human foreskin fibroblast (HFF) cells. Nature of the data set: Cytotoxicity in HFF cells in parallel to HSV-2 assay. The conditions noted are these: HFF cells.
Data set [18] has the same test system. In words: Cytotoxicity in HFF cells in parallel to cytomegalovirus assay. The settings on record: HFF cells, in parallel to cytomegalovirus assay.
The test system is the same in data set [19]. Nature of the data set: Cytotoxicity in HFF cells in parallel to HSV-1 assay. The conditions noted are these: HFF cells, in parallel to HSV-1 assay.
In data set [20] the test system is Copenhagen strain of vaccinia virus. Nature of the data set: microbe, parasite or virus in culture. The data set is classed as cell-based. The conditions noted are these: HFF cells infected with vaccinia virus (Copenhagen), 7 days, crystal violet; read-out: EC50.
In data set [21] the test system is Human peripheral blood monocyte (PBMC).

What is called EC50 is the concentration needed to bring the measured effect to its halfway point. `CCCCCCCCCCCCCCCCCCOCCOP(=O)(COCCn1cnc2c(=O)[nH]c(N)nc21)OCc1ccccc1` (racemic) [Compound 1, benzyl octadecyloxyethyl 9-(2-phosphonomethoxyethyl)guanine]: the values for the CC50 at 7 days in data set [1] and in [10] were 63800 nM and more than 100000 nM, respectively. The CC50 with Caski (HPV-16) (Homo sapiens, Ca-Ski, 96 h, read-out: Cytotoxic concentration 50% (CC50) Caski (HPV-16)) was 4 nM; in the data set on MT-2 cells (Homo sapiens, MT2, 72 h, read-out: CC50, 50% Cytotoxic concentration MT2 cells T cell leukemia), 36 ± 40 nM; in the data set with Hela (HPV-18), 9 nM; in data set [6], 10000 nM; in “in vitro”, 40 nM; in [12], more than 10000 nM. Further, the “fold more effective in reducing viable cell number in the cervical cancer lines than in normal, non-transformed human fibroblasts” value with Caski (HPV-16) (cervical cancer lines (Caski, Hela) vs HFF) was 3,750 fold. The results for the CC50 at 14 days in data set [2] and in data set [7] were 3060 nM and 51500 nM, respectively. The EC50 in the data set on Hepatitis B virus (Hepatitis B virus, 168 h) was 440 nM; in the data set on HIV-1LAI (Human immunodeficiency virus 1, MT2, 96 h) it was less than 0.01 nM; with HPV-16 (HEK293, HPV-16 origin replication in HEK 293 cells, 48 hr, qPCR, read-out: EC50), 200 nM; in the data set on HPV-11 (HEK293), 490 nM; in the data set with HIV-192US727 (Human immunodeficiency virus 1, PBMC, 168 h) it was less than 10 nM; in the data set with HPV-18 (Homo sapiens, Keratinocyte), 210 nM. Besides, the EC50 with MAD-1 strain of JC virus (JC polyomavirus, COS-7, 168 h) was 70 nM; in [9] (Human betaherpesvirus 5, AD169, HFF, 336 h), less than 30 nM; in data set [13] (Betapolyomavirus hominis, HFF, 336 h), less than 30 nM. Besides, the “Selectivity Index” value with Hepatitis B virus (hepatitis B virus, 2.2.15 cells) is more than 226; in the data set with HIV-1LAI it was more than 3600; with HPV-16 (HPV-16, HEK 293 cells) it was more than 50; in the data set with HPV-11 (HPV-11, HEK 293 cells) it was more than 204; in the data set on HIV-192US727 (HIV-192US727, human PBMC) it was more than 4.0; in the data set with HPV-18 (HPV-18 keratinocyte rafts), 48. The “Selectivity Index” value is reported as 911 with MAD-1 strain of JC virus (JC virus (MAD-1), COS7 cells); more than 1717 in data set [9] (human cytomegalovirus (AD169), HFF cells); more than 102 in data set [13] (BK virus (Gardner strain), HFF cells). In [3], this molecule came in with a CC50 at 48 h of more than 100000 nM. Also, in data set [4], the CC50 at 72 h came to 36 ± 40 nM. In data set [5], this molecule had a CC50 at 4 days of 15000 nM. For the same molecule, in data set [8] (4 mg/kg/day oral gavage daily for 5 days), the “body weight Day 6” value is given as 18.42 ± 1.00 (3). Moreover, in data set [8] (4 mg/kg/day oral gavage, before dosing), the “body weight Day 0” value is recorded as 18.63 ± 0.728 (3). This molecule also showed a CC50 at 3 days in data set [11] of more than 100000 nM.
On to `CCCCCCCCCCCCCCCCCCOCCOP(=O)(CO[C@H](C)Cn1cnc2c(N)ncnc21)Oc1ccccc1` (stereo partly drawn) [Compound 92, phenyl octadecyloxyethyl 9-(R)-[(2-phosphonomethoxy)propyl]adenine], for which the EC50 in the data set on Hepatitis B virus (HBV replication in 2.2.15 cells, 7 days treatment, HBV DNA blot hybridization) is 7300 nM; in the data set with HIV-192US727 (HIV-192US727 infected human PBMC, 7 days, supernatant reverse transcriptase activity), less than 5 nM. For the same molecule, the CC50 in the data set with 2.2.15 cells was found to be 68000 nM; in data set [14], 24100 nM.
`CCCCCCCCCCCCCCCCCCOC[C@H](COP(=O)(CO[C@H](CO)Cn1cnc2c(N)ncnc21)OCc1ccccc1)OCc1ccccc1` (stereo partly drawn) [Compound 230, benzyl 1-O-octadecyl-2-O-benzyl-sn-glyceryl 9-(S)-[(3-hydroxypropyl-2-phosphonomethoxy)propyl]adenine]: the CC50 was 18400 nM with COS7 cells; 19600 nM in data set [15]; 97500 nM in [16]; more than 10000 nM in the data set with HEK 293 cells; 19000 ± 2600 nM in the data set with MT-2 cells (MT-2 cells, 72 hrs, read-out: CC50); 37100 nM in data set [17]. Also, the CC50 in data set [18] was determined as 3720 nM; in data set [19], 82200 nM; in data set [21], 550 nM. In the data set on HIV-1LAI, the “Selectivity Index” value stood at 380. The EC50 was 50 ± 30 nM with HIV-1LAI (HIV-1 infected MT-2 cells, p24 reduction, four days); 560 nM in the data set on HPV-11; less than 100 nM with HIV-192US727; more than 4000 nM in the data set with MAD-1 strain of JC virus (COS7 cells infected with JC virus (MAD-1), 7 days, qPCR); less than 30 nM in data set [9] (HFF cells infected with human cytomegalovirus (AD169), 14 days, crystal violet); 60 nM in data set [20]. The midpoint of the response in data set [13] (HFF cells infected with BK virus (Gardner strain), 14 days, qPCR), the EC50, lay at 60 nM.
